Measured values from patent US12077503B2, “Substituted cyclic amides and their use as herbicides” (FMC CORPORATION, priority 2015, dated 2024).

What was measured:
Assay type in all cases: in vivo
[1] = test system: ivy-leaved morning glory (Ipomoea hederacea); experiment: Test G Pre-Emergence Protocol; conditions: Ipomoea, pre-emergence, 312 h, evaluated after 13 days; for pest or weed control at 15.625 g/ha: 15.625 g ai/ha; for pest or weed control at 15.625 g/ha / pest or weed control at 250 g/ha: read-out: Morningglory, Ivy-leaved damage rating (100=total damage to plant; 0=no damage to plant); for pest or weed control at 62.5 g/ha: 62.5 g ai/ha, 100=total damage to plant, 0=no damage to plant, read-out: Morningglory, Ivy-leaved damage rating; for pest or weed control at 250 g/ha: 250 g ai/ha
In short: (§1)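 Visual injury (0–100) at day 13 after a single pre-emergence spray. Rates: 15.625, 62.5, 250 g/ha in acetone–water 50:50 with 0.5% Tween 20. Growth conditions: 24/16° C, 14 h light, 65% humidity.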

[2] = test system: barnyardgrass (Echinochloa crus-galli); experiment: Test G Pre-Emergence Protocol; conditions: Echinochloa crus-galli, pre-emergence, 312 h, evaluated after 13 days; for pest or weed control at 15.625 g/ha: 15.625 g ai/ha; for pest or weed control at 15.625 g/ha / pest or weed control at 250 g/ha: read-out: Barnyardgrass damage rating (100=total damage to plant; 0=no damage to plant); for pest or weed control at 62.5 g/ha: 62.5 g ai/ha, 100=total damage to plant, 0=no damage to plant, read-out: Barnyardgrass damage rating; for pest or weed control at 250 g/ha: 250 g ai/ha
In short: as §1

[3] = test system: velvetleaf (Abutilon theophrasti); experiment: Test G Pre-Emergence Protocol; conditions: Abutilon theophrasti, pre-emergence, 312 h, evaluated after 13 days; for pest or weed control at 15.625 g/ha: 15.625 g ai/ha; for pest or weed control at 15.625 g/ha / pest or weed control at 250 g/ha: read-out: Velvetleaf damage rating (100=total damage to plant; 0=no damage to plant); for pest or weed control at 62.5 g/ha: 62.5 g ai/ha, 100=total damage to plant, 0=no damage to plant, read-out: Velvetleaf damage rating; for pest or weed control at 250 g/ha: 250 g ai/ha
In short: as §1

corn (Zea mays) [4] = experiment: Test G Pre-Emergence Protocol; conditions: Zea mays, pre-emergence, 312 h, evaluated after 13 days; for plant injury at 15.625 g/ha: 15.625 g ai/ha; for plant injury at 15.625 g/ha / plant injury at 250 g/ha: read-out: Corn damage rating (100=total damage to plant; 0=no damage to plant); for plant injury at 62.5 g/ha: 62.5 g ai/ha, 100=total damage to plant, 0=no damage to plant, read-out: Corn damage rating; for plant injury at 250 g/ha: 250 g ai/ha
In short: as §1

[5] = test system: giant foxtail (Setaria faberi); experiment: Test G Pre-Emergence Protocol; conditions: Setaria faberi, pre-emergence, 312 h, evaluated after 13 days; for pest or weed control at 15.625 g/ha: 15.625 g ai/ha; for pest or weed control at 15.625 g/ha / pest or weed control at 250 g/ha: read-out: Foxtail, Giant damage rating (100=total damage to plant; 0=no damage to plant); for pest or weed control at 62.5 g/ha: 62.5 g ai/ha, 100=total damage to plant, 0=no damage to plant, read-out: Foxtail, Giant damage rating; for pest or weed control at 250 g/ha: 250 g ai/ha
In short: as §1

[6] = test system: redroot pigweed (Amaranthus retroflexus); experiment: Test G Pre-Emergence Protocol; conditions: Amaranthus retroflexus, pre-emergence, 312 h, evaluated after 13 days; for pest or weed control at 15.625 g/ha: 15.625 g ai/ha; for pest or weed control at 15.625 g/ha / pest or weed control at 250 g/ha: read-out: Pigweed, Redroot damage rating (100=total damage to plant; 0=no damage to plant); for pest or weed control at 62.5 g/ha: 62.5 g ai/ha, 100=total damage to plant, 0=no damage to plant, read-out: Pigweed, Redroot damage rating; for pest or weed control at 250 g/ha: 250 g ai/ha
In short: as §1

[7] = test system: ivy-leaved morning glory (Ipomoea hederacea); experiment: Test G Post-Emergence Protocol; conditions: Ipomoea, post-emergence, 312 h, read-out: Morningglory, Ivy-leaved damage rating; for pest or weed control at 15.625 g/ha: 15.625 g ai/ha, evaluated after 13 days (100=total damage to plant; 0=no damage to plant); for pest or weed control at 62.5 g/ha: 62.5 g ai/ha; for pest or weed control at 62.5 g/ha / pest or weed control at 250 g/ha: evaluated after 13 days, 100=total damage to plant, 0=no damage to plant; for pest or weed control at 250 g/ha: 250 g ai/ha
In short: (§2)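 Damage was rated 13 days after treatment from 0 (none) to 100 (plant killed). Compound was applied as a spray at 15.625, 62.5 or 250 g/ha in 50:50 acetone/water containing 0.5% Tween 20, onto 8-day-old potted plants kept in a glasshouse (24/16 °C, 14 h light, 65% humidity).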

[8] = test system: barnyardgrass (Echinochloa crus-galli); experiment: Test G Post-Emergence Protocol; conditions: Echinochloa crus-galli, post-emergence, 312 h, read-out: Barnyardgrass damage rating; for pest or weed control at 15.625 g/ha: 15.625 g ai/ha, evaluated after 13 days (100=total damage to plant; 0=no damage to plant); for pest or weed control at 62.5 g/ha: 62.5 g ai/ha; for pest or weed control at 62.5 g/ha / pest or weed control at 250 g/ha: evaluated after 13 days, 100=total damage to plant, 0=no damage to plant; for pest or weed control at 250 g/ha: 250 g ai/ha
In short: as §2

[9] = test system: velvetleaf (Abutilon theophrasti); experiment: Test G Post-Emergence Protocol; conditions: Abutilon theophrasti, post-emergence, 312 h, read-out: Velvetleaf damage rating; for pest or weed control at 15.625 g/ha: 15.625 g ai/ha, evaluated after 13 days (100=total damage to plant; 0=no damage to plant); for pest or weed control at 62.5 g/ha: 62.5 g ai/ha; for pest or weed control at 62.5 g/ha / pest or weed control at 250 g/ha: evaluated after 13 days, 100=total damage to plant, 0=no damage to plant; for pest or weed control at 250 g/ha: 250 g ai/ha
In short: as §2

corn (Zea mays) [10] = experiment: Test G Post-Emergence Protocol; conditions: Zea mays, post-emergence, 312 h, read-out: Corn damage rating; for plant injury at 15.625 g/ha: 15.625 g ai/ha, evaluated after 13 days (100=total damage to plant; 0=no damage to plant); for plant injury at 62.5 g/ha: 62.5 g ai/ha; for plant injury at 62.5 g/ha / plant injury at 250 g/ha: evaluated after 13 days, 100=total damage to plant, 0=no damage to plant; for plant injury at 250 g/ha: 250 g ai/ha
In short: as §2

[11] = test system: giant foxtail (Setaria faberi); experiment: Test G Post-Emergence Protocol; conditions: Setaria faberi, post-emergence, 312 h, read-out: Foxtail, Giant damage rating; for pest or weed control at 15.625 g/ha: 15.625 g ai/ha, evaluated after 13 days (100=total damage to plant; 0=no damage to plant); for pest or weed control at 62.5 g/ha: 62.5 g ai/ha; for pest or weed control at 62.5 g/ha / pest or weed control at 250 g/ha: evaluated after 13 days, 100=total damage to plant, 0=no damage to plant; for pest or weed control at 250 g/ha: 250 g ai/ha
In short: as §2

[12] = test system: redroot pigweed (Amaranthus retroflexus); experiment: Test G Post-Emergence Protocol; conditions: Amaranthus retroflexus, post-emergence, 312 h, read-out: Pigweed, Redroot damage rating; for pest or weed control at 15.625 g/ha: 15.625 g ai/ha, evaluated after 13 days (100=total damage to plant; 0=no damage to plant); for pest or weed control at 62.5 g/ha: 62.5 g ai/ha; for pest or weed control at 62.5 g/ha / pest or weed control at 250 g/ha: evaluated after 13 days, 100=total damage to plant, 0=no damage to plant; for pest or weed control at 250 g/ha: 250 g ai/ha
In short: as §2

Compound | pest or weed control at 15.625 g/ha [1] [%] | pest or weed control at 62.5 g/ha [1] [%] | pest or weed control at 250 g/ha [1] [%] | pest or weed control at 15.625 g/ha [2] [%] | pest or weed control at 62.5 g/ha [2] [%] | pest or weed control at 250 g/ha [2] [%] | pest or weed control at 15.625 g/ha [3] [%] | pest or weed control at 62.5 g/ha [3] [%] | pest or weed control at 250 g/ha [3] [%] | plant injury at 15.625 g/ha (corn (Zea mays) [4]) [%] | plant injury at 62.5 g/ha (corn (Zea mays) [4]) [%] | plant injury at 250 g/ha (corn (Zea mays) [4]) [%] | pest or weed control at 15.625 g/ha [5] [%] | pest or weed control at 62.5 g/ha [5] [%] | pest or weed control at 250 g/ha [5] [%] | pest or weed control at 15.625 g/ha [6] [%] | pest or weed control at 62.5 g/ha [6] [%] | pest or weed control at 250 g/ha [6] [%] | pest or weed control at 15.625 g/ha [7] [%] | pest or weed control at 62.5 g/ha [7] [%] | other results
CN1C[C@H](c2cccc(C(F)(F)F)c2)[C@@H](C(=O)Nc2cnccc2S(C)(=O)=O)C1=O (racemic) [Compound 1747] | 0 | 0 | 0 | 0 | 0 | 80 | 0 | 0 | 0 | 0 | 0 | 0 | 0 | 10 | 70 | 0 | 10 | 10 | 0 | 20 | pest or weed control at 250 g/ha [7]: 50%; pest or weed control at 15.625 g/ha [8]: 0%; pest or weed control at 62.5 g/ha [8]: 60%; pest or weed control at 250 g/ha [8]: 80%; pest or weed control at 15.625 g/ha [9]: 0%; pest or weed control at 62.5 g/ha [9]: 0%; pest or weed control at 250 g/ha [9]: 10%; plant injury at 15.625 g/ha (corn (Zea mays) [10]): 0%; plant injury at 62.5 g/ha (corn (Zea mays) [10]): 0%; plant injury at 250 g/ha (corn (Zea mays) [10]): 30%; pest or weed control at 15.625 g/ha [11]: 10%; pest or weed control at 62.5 g/ha [11]: 60%; pest or weed control at 250 g/ha [11]: 80%; pest or weed control at 15.625 g/ha [12]: 10%; pest or weed control at 62.5 g/ha [12]: 20%; pest or weed control at 250 g/ha [12]: 20%
CN1C[C@H](c2ccc(C(F)F)cc2)[C@@H](C(=O)Nc2cccc(F)c2F)C1=O (racemic) [Compound 1728] | 0 | 30 | 80 | 70 | 90 | 90 | 40 | 60 | 80 | 30 | 80 | 80 | 80 | 90 | 90 | 30 | 80 | 80 | 0 | 20 | pest or weed control at 250 g/ha [7]: 70%; pest or weed control at 15.625 g/ha [8]: 70%; pest or weed control at 62.5 g/ha [8]: 80%; pest or weed control at 250 g/ha [8]: 80%; pest or weed control at 15.625 g/ha [9]: 30%; pest or weed control at 62.5 g/ha [9]: 30%; pest or weed control at 250 g/ha [9]: 60%; plant injury at 15.625 g/ha (corn (Zea mays) [10]): 60%; plant injury at 62.5 g/ha (corn (Zea mays) [10]): 60%; plant injury at 250 g/ha (corn (Zea mays) [10]): 80%; pest or weed control at 15.625 g/ha [11]: 80%; pest or weed control at 62.5 g/ha [11]: 80%; pest or weed control at 250 g/ha [11]: 80%; pest or weed control at 15.625 g/ha [12]: 20%; pest or weed control at 62.5 g/ha [12]: 0%; pest or weed control at 250 g/ha [12]: 80%
